Results reported in patent US9566265B2, “Carbazole compounds and therapeutic uses of the compounds” (Incuron, LLC, priority 2008, dated 2017).
Where two headings read alike, the source gives them in different places.

How the values were obtained:
p53 = p53 activation assay, p53 responsive luciferase reporter cell line; format: cell-based, human; details: for p53 activation, active or inactive carbazole: structural analysis, FIGS. 6 and 7
Description: The potency of a present carbazole compound is determined by measuring an ability of the compound to inhibit NF-κB activity or to activate p53. […] Theoretically, such assays of the dose-response effect of activator compounds can be described as a sigmoidal curve expressing a degree of activation as a function of concentration. The curve also theoretically passes through a point at which the concentration is sufficient to increase activity to a level that is 50% that of the difference between a baseline and the maximal activity in the assay. […] Determination of an EC50 value is made using conventional biochemical (acellular) assay techniques or cell-based assay techniques.
The potency of a carbazole compound is determined by measuring an ability of the compound to activate p53.
The p53 activation assay for determination of the EC50 value was performed as follows:
HT1080-L (human fibrosarcoma cells with ConALuc reporter)
RCC45ConALuc (human renal cell carcinoma cell line with ConALuc reporter)
1. Two types of standard cells were used, either HT1080-L or RCC45ConALuc cells. Both cell lines stably express a p53 responsive luciferase reporter construct.
2. HT1080-L cells were grown in DMEM medium containing 10% FBS. RCC45ConALuc cells were grown in RPMI medium containing 10% FBS (Pen/Strep can be added to a final concentration of 1%, if desired). Both cell lines were grown in a humidified incubator at 37° C. with 5% CO2. For normal culturing, both cell lines were split using 1× trypsin-EDTA at a ratio of 1:20 for HT1080-L and 1:5 for RCC45ConALuc cells every 3-4 days (when cells are 80-90% confluent).
3. A day before the experiment, the cells are trypsinized for about 5 minutes in 1× tripsin/EDTA solution in 37° C. incubator and plated in 96 well plates. HT1080-L cells were seeded at a density of 1×10^4/well in standard DMEM medium in a volume of 50 μl. RCC45ConALuc were seeded at a density of 2×10^4/well in the volume of 50 uL in standard RPMI medium.
4. The next day, various carbazole compounds were prepared by dilution of stock solutions in standard DMEM medium such that the cells were treated with the final chemical concentrations in Table 1 below. Stock solutions were made up in DMSO. Typically, chemicals were made up as 20 mM stock solutions.
5. Each tested compound used two rows of a 96-well plate, thus four compounds (e.g., W, X, Y, Z) were tested in one plate simultaneously. In addition to test compounds, each plate included positive and negative controls. As positive control, 9aa was used at a dose of 3 μM. As a negative control, DMSO was used in final concentration 0.1%.
1. Dilutions of chemicals added to the plate were made up as 2× concentrations in standard DMEM and added to corresponding well in a volume of 50 μl.
2. Chemicals were diluted in standard DMEM by two time serial dilutions starting from 40 μM (2× of highest concentration, e.g., 20 μM). For one cell line, the minimum volume was 125 μL of 2× working solution of chemical of each concentration in standard DMEM.
4. Sixteen hours following compound addition, all wells with the highest concentrations of compounds are checked microscopically for the presence of toxic effect, because death of cells caused by compounds may not allow detecting luciferase activity. If cytotoxocity is evident, other doses of the same compounds were checked for the presence of toxicity. The lowest dose causing toxic effect was recorded.
5. After microscopic examination, 15 μl of Bright Glo luciferase assay system were added to each well and after 5 min incubation at RT, the plates were read on a 96 well plate luminometer with a measurement time of 0.1 sec. A shaking step was included before measurement.
6. The folds of luciferase activation for each concentration of each chemical were calculated by dividing the detected luciferase activity at each chemical concentration by the average of the luciferase activity for the DMSO control on the same plate.

HB 101 E. coli = experiment: antibacterial cytotoxicity assay, gram(−) bacteria (OD600); format: cell-based; details: 48 hours, over a range of potencies, FIG. 13A
Bacillus subtilis = experiment: antibacterial cytotoxicity assay, gram(+) bacteria (OD600); format: cell-based; details: B. subtilis, 48 hours, over a range of potencies; FIG. 13B
Description: In vitro test to evaluate the effect of carbazole compounds on gram(-) and gram(+) bacteria. Two days prior to the start of the cytotoxicity assay, inoculate DH5-α and B. subtilis into 1 ml of corresponding media from glycerol stocks. Allow to grow during the course of the day at 37° C. with shaking. Streak each bacteria on the appropriate agar plates using a sterile inoculation loop and allow to grow overnight at 37° C. in the bacteria incubator. Using a sterile inoculation loop, pick a single colony of bacteria and inoculate 5 ml of the corresponding media in a 14 ml snap cap tube. Grow overnight ( 16 h) at 37° C. with shaking. […] Dilute 5 ml cultures of DH5-α and B. subtilis to an OD600 nm of 0.002, which corresponds to about 2×10^6 cells/ml in a volume sufficient for the experiment (dependent on the number of plates). Plate out 50 μl into each well of X 96-well plates (X=# plates needed for a given experiment). […] Chemicals for testing are prepared by dilution of stock solutions in LB Broth or Nutrient Broth for DH5-α and B. subtilis studies, respectively. Cells are treated with the final chemical concentrations presented in the scheme below (Table 2). Stock solutions are made up in DMSO. […] However, this concentration is dependent on the solubility of a given chemical and actual stock concentrations must be noted at time of experiment. Each library chemical to be tested requires 2 rows of a 96-well plate, thus 4 chemicals ([…]) can be tested in one plate simultaneously. In addition to test chemicals, each plate should include positive and negative controls. As positive control, ampicillin is used at 100 μg/ml. […] Dilutions of chemicals to be added to the plate are made up as 2× concentrations in appropriate bacteria media and added to corresponding wells in a volume of 50 μl. […] This process is repeated until all 10 2× doses are prepared. […] Following the addition of carbazole compounds to 96-well plates containing bacteria, plates are transferred to the 37° C. bacteria incubator for 48 hours. After the incubation, the OD600 mm for each well of the 96-well plates will be measured. […] The % DMSO control is plotted vs compound concentration to generate sigmoid shaped curves. After three runs are complete, the raw data for all three runs is used for IC50 calculations.

[1] = tested on: Plasmodium falciparum (strain D10); experiment: Plasmodium falciparum in vitro culture, infected erythrocytes; format: cell-based; details: tested at 29, 57, 143 nM or 143 nM only; FIG. 12
Description: In particular, the effect of carbazole compounds on the malaria parasite was tested by culturing Plasmodium falciparum (strain D10) in vitro in the presence or absence of test compounds.
In each experiment, 1000 erythrocytes were assessed microscopically to determine the number of infected cells.

[2] = tested on: Caki1 human renal cell carcinoma cells; experiment: Caki1 renal cell carcinoma xenograft efficacy test; details: Day 24 (end of treatment); oral gavage 5 day on/2 day off; Example 7 30, Example 15 5, Example 13 25, Sunitinib 40 mg/kg
Description: In an efficacy test using these three compounds, athymic nude mice were inoculated subcutaneously with a suspension of Caki1 human renal cell carcinoma cells into both rear flanks. When at least one tumor in a mouse reached 20-50 mm^3, treatment was commenced. […] As a positive control, one group was treated with 40 mg/kg Sunitinib, an approved drug for the treatment of renal cell carcinoma. Treatment was given for 4 weeks on a 5 day on/2 day off schedule. After treatment was completed, mice were monitored for an additional 4 weeks to determine how quickly tumor growth returned to normal.

Bloodstream T. brucei = experiment: T. brucei bloodstream form in vitro killing; format: cell-based, Trypanosoma brucei; details: Trypanosoma brucei, read-out: IC50 (concentration that killed 50% of the parasites); bloodstream stage, 48 hrs of culture
Description: Preliminary T. brucei inactivation experiments were performed in vitro. The life cycle of T. brucei involves a “procyclic” developmental stage in a tsetse fly, and a “bloodstream” form in humans. All studies were performed with the bloodstream stage of the parasite, because it is the disease-causing developmental stage.
Suramin, a conventional anti-HAT drug, was used as a positive control.
Bloodstream T. brucei was seeded (3×10^3 cells/mL) in 24-well (500 uL of the media per well) plate. […] Control cultures received equal volumes of DMSO.

[3] = Homo sapiens, 16 h, HT1080-L or RCC45ConALuc reporter cells, 16 h, read-out: EC50 value (p53 activation)
[4] = HT1080-L or RCC45ConALuc reporter cells, 16 h, read-out: EC50 value (p53 activation)
[5] = Table 3, test compounds of the malaria experiment
[6] = Homo sapiens, HT1080-L or RCC45ConALuc reporter cells, 16 h, read-out: EC50 value (p53 activation)

CCN(CC)CCn1c2ccc(C(C)=O)cc2c2cc(C(C)=O)ccc21 [Compound 3a]
EC50 (p53; [3]): 0.29 µM

CC(=O)c1ccc2c(c1)c1cc(C(C)=O)ccc1n2CCCN(C)C [Compound 3b]
EC50 (p53; [3]): 0.49 µM

CC(=O)c1ccc2c(c1)c1cc(C(C)=O)ccc1n2CCC1CCCN1C (stereo not drawn) [Compound 3e]
EC50 (p53; [3]): 0.78 µM

CCC(=O)c1ccc2c(c1)c1cc(C(=O)CC)ccc1n2CCCN(C)C [Compound 7d]
EC50 (p53; [3]): 0.64 µM

CC(=O)c1ccc2c(c1)c1c3c(ccc1n2CCC1CCCN1C)C(=O)CC3 (stereo not drawn) [Compound 18c-1]
antibacterial effect (HB 101 E. coli): antibacterial effect | antibacterial effect (Bacillus subtilis): antibacterial effect | EC50 (p53; [3]): 0.08 µM

CC(=O)c1ccc2c(c1)c1c3c(ccc1n2CC[C@@H]1CCCN1C)C(=O)CC3 [Compound 18c-2]
EC50 (p53; [3]): 0.1 µM

CCN(CC)CCn1c2ccc(C(C)=O)cc2c2cc(C(C)=O)c(O)cc21 [Compound 19a]
EC50 (p53; [3]): 0.4 µM

CC(=O)c1cc2c3c4c(ccc3n(CCCN(C)C)c2cc1O)C(=O)N(C)C4 [Compound 19e]
EC50 (p53; [3]): 0.07 µM

CCN(CC)CCn1c2ccccc2c2cc(C(C)=O)c(O)cc21 [Compound 22, 3-Acetyl-2-hydroxy-9-N,N-diethylaminoethylcarbazole]
EC50 (p53; [4]): 0.53 µM

CN(C)CCCN(c1ccccc1)c1ccc2c(c1)CCC2=O [Compound 200, reference compound]
p53 activation, active or inactive carbazole (p53): inactive

CCN(CC)CCn1c2ccc(C(C)=O)cc2c2cc(C(C)=O)ncc21 [Compound 300, reference compound]
p53 activation, active or inactive carbazole (p53): active

CCN(CC)CCn1c2ccccc2c2cc(C(C)=O)ncc21.Cl [Compound 400, reference compound]
EC50, μM (p53 activation assay) (p53; [5]): Inactive | anti-malarial activity, parasitemia reduction [1]: no parasitemia reduction

CCCCCn1c2ccc(C(C)=O)cc2c2c3c(ccc21)C(=O)CC3 [Compound 500, reference compound]
EC50, μM (p53 activation assay) (p53; [5]): Inactive | anti-malarial activity, parasitemia reduction [1]: no parasitemia reduction

CC(=O)c1ccc2c(c1)c1cc(C(C)=O)ccc1n2CCC1CCCN1C (stereo not drawn) [Example 2, 1,1′-{9-[2-(1-Methylpyrrolidin-2-yl)ethyl]-9H-carbazole-3,6-diyl}diethanone]
EC50 (p53; Homo sapiens, read-out: EC50, μM (p53 activation assay)): 0.64 µM | EC50 (p53; [6]): 0.64 µM | p53 activation, active or inactive carbazole (p53): active | anti-malarial activity, parasitemia reduction [1]: anti-malarial activity comparable to quinacrine

CC(=O)c1cc2c3c4c(ccc3n(CCCN(C)C)c2cc1O)C(=O)CC4 [Example 4, 9-Acetyl-6-[3-(dimethylamino)propyl]-8-hydroxy-1,6-dihydrocyclopenta[c]carbazol-3(2H)-one]
antibacterial effect (HB 101 E. coli): antibacterial effect | antibacterial effect (Bacillus subtilis): antibacterial effect | EC50 (p53; Homo sapiens, 16 h, read-out: EC50 value (p53 activation, μM)): 0.07 µM

CCCNCCCn1c2ccc(C(C)=O)cc2c2c3c(ccc21)C(=O)CC3 [Example 6, 9-Acetyl-6-[3-(propylamino)propyl]-1,6-dihydrocyclopenta[c]carbazol-3(2H)-one]
EC50 (p53; [4]): 0.24 µM

CC(=O)c1cc2c3cc(C(C)=O)c(O)cc3n(CCCN(C)C)c2cc1O [Example 12]
antibacterial effect (HB 101 E. coli): antibacterial effect | antibacterial effect (Bacillus subtilis): antibacterial effect

CCCNCCCn1c2ccc3c(c2c2c4c(ccc21)C(=O)CC4)CCC3=O [Example 14]
EC50 (p53; [3]): 0.05 µM

CN(C)CCCn1c2ccc([N+](=O)[O-])cc2c2cc([N+](=O)[O-])ccc21 [Example 21]
EC50 (p53; [4]): 0.83 µM

CCN(CC)CCCn1c2ccc([N+](=O)[O-])cc2c2cc([N+](=O)[O-])ccc21 [Example 23]
EC50 (p53; [6]): 0.88 µM

O=[N+]([O-])c1ccc2c(c1)c1cc([N+](=O)[O-])ccc1n2CCCN1CCCC1 [Example 24]
EC50 (p53; [6]): 0.78 µM

CNCCCn1c2ccc([N+](=O)[O-])cc2c2cc([N+](=O)[O-])ccc21 [Example 25]
EC50 (p53; [6]): 0.88 µM

CCN(CC)CCn1c2ccc(C(=O)NC)cc2c2cc(C(=O)NC)ccc21 [Example 27]
EC50 (p53; [3]): 0.54 µM

CCN(CC)CCCC(C)Nc1c2ccc(Cl)cc2nc2ccc(OC)cc12 (stereo not drawn) [Quinacrine, reference compound]
EC50 (p53; Homo sapiens, Table 3, test compounds of the malaria experiment, read-out: EC50, μM (p53 activation assay)): ~5 µM

CCN(CC)CCNC(=O)c1c(C)[nH]c(/C=C2\C(=O)Nc3ccc(F)cc32)c1C [Sunitinib, reference compound]
tumor growth inhibition compared to the vehicle control [2]: 42%

Cc1ccc(C(=O)Nc2ccc(S(=O)(=O)O)c3cc(S(=O)(=O)O)cc(S(=O)(=O)O)c23)cc1NC(=O)c1cccc(NC(=O)Nc2cccc(C(=O)Nc3cc(C(=O)Nc4ccc(S(=O)(=O)O)c5cc(S(=O)(=O)O)cc(S(=O)(=O)O)c45)ccc3C)c2)c1 [Suramin, reference compound]
IC50 (Bloodstream T. brucei): > 300 nM
